Target: T1, MC4 (Homo sapiens, UniProt P32245)
T1 construct: purchased Perkin Elmer BioSignal; host or cells: HEK 293
Assay: GPCR radioligand binding (RLB) assay, melanocortin MC4, [125I]NDP-αMSH
Conditions: 4.0 Micromolar
Procedure, shortened: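 Competition binding against radioligand ([125I]NDP-αMSH for MC4, [125I]SST-14 for SST5) on membranes of HEK 293 cells carrying the human receptor; buffer and incubation time optimized per receptor. Filtration through 0.5% PEI-treated glass fiber, washing, then scintillation counting.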

T1 sequence (P32245 whole entry): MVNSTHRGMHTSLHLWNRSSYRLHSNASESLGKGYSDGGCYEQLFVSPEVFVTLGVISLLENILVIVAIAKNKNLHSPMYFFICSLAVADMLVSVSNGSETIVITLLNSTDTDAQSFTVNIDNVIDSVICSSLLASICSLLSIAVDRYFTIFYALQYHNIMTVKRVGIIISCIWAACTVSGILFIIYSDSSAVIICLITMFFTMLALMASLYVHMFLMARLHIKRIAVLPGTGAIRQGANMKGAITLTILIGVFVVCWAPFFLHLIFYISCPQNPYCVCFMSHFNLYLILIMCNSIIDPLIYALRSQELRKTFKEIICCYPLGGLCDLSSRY

SMILES	MC4 Inhibition at 4.0 Micromolar (Example Library 11)	MC4 Inhibition at 4.0 Micromolar (Example Library 12)
NCCCC(=O)NC1C(OCc2ccccc2)OC(COCc2ccc3ccccc3c2)C(O)C1OCc1ccc(Cl)cc1 (centres unmarked) [Compound 406]	+ (Indicates inhibition greater than . . . 50%)	
NCCCC(=O)NC1C(OCc2ccccc2)OC(COCc2ccc(Cl)cc2)C(O)C1OCc1ccc(Cl)cc1 (centres unmarked) [Compound 407]	+ (Indicates inhibition greater than . . . 50%)	
NCCCC(=O)NC1C(OCc2ccccc2)OC(COCc2ccc3ccccc3c2)C(O)C1OCc1ccc2ccccc2c1 (centres unmarked) [Compound 408]	+ (Indicates inhibition greater than . . . 50%)	
NCCCC(=O)NC1C(OCc2ccccc2)OC(COCc2ccccc2)C(O)C1OCc1ccc2ccccc2c1 (centres unmarked) [Compound 409]	+ (Indicates inhibition greater than . . . 50%)	
NCCCC(=O)NC1C(OCc2ccccc2)OC(COCc2ccc(Cl)cc2)C(O)C1OCc1ccc2ccccc2c1 (centres unmarked) [Compound 410]	+ (Indicates inhibition greater than . . . 50%)	
NCCCC(=O)NC1C(OCc2ccccc2)OC(COCc2ccc3ccccc3c2)C(O)C1OCc1ccccc1 (centres unmarked) [Compound 411]	+ (Indicates inhibition greater than . . . 50%)	
NCCCC(=O)NC1C(OCc2ccccc2)OC(COCc2ccc(Cl)cc2)C(O)C1OCc1ccccc1 (centres unmarked) [Compound 412]	+ (Indicates inhibition greater than . . . 50%)	
NCCC(=O)NC1C(OCc2ccc3ccccc3c2)OC(COCc2ccc3ccccc3c2)C(O)C1OCc1ccc(Cl)cc1 (centres unmarked) [Compound 413]	+ (Indicates inhibition greater than . . . 50%)	
NCCC(=O)NC1C(OCc2ccc3ccccc3c2)OC(COCc2ccccc2)C(O)C1OCc1ccc(Cl)cc1 (centres unmarked) [Compound 414]	+ (Indicates inhibition greater than . . . 50%)	
NCCC(=O)NC1C(OCc2ccc3ccccc3c2)OC(COCc2ccc(Cl)cc2)C(O)C1OCc1ccc(Cl)cc1 (centres unmarked) [Compound 415]	+ (Indicates inhibition greater than . . . 50%)	
NCCC(=O)NC1C(OCc2ccc3ccccc3c2)OC(COCc2ccc3ccccc3c2)C(O)C1OCc1ccc2ccccc2c1 (centres unmarked) [Compound 416]	+ (Indicates inhibition greater than . . . 50%)	
NCCC(=O)NC1C(OCc2ccc3ccccc3c2)OC(COCc2ccccc2)C(O)C1OCc1ccc2ccccc2c1 (centres unmarked) [Compound 417]	+ (Indicates inhibition greater than . . . 50%)	
NCCC(=O)NC1C(OCc2ccc3ccccc3c2)OC(COCc2ccc(Cl)cc2)C(O)C1OCc1ccc2ccccc2c1 (centres unmarked) [Compound 418]	+ (Indicates inhibition greater than . . . 50%)	
NCCC(=O)NC1C(OCc2ccc3ccccc3c2)OC(COCc2ccc3ccccc3c2)C(O)C1OCc1ccccc1 (centres unmarked) [Compound 419]	+ (Indicates inhibition greater than . . . 50%)	
NCCC(=O)NC1C(OCc2ccc3ccccc3c2)OC(COCc2ccccc2)C(O)C1OCc1ccccc1 (centres unmarked) [Compound 420]	+ (Indicates inhibition greater than . . . 50%)	
NCCC(=O)NC1C(OCc2ccc3ccccc3c2)OC(COCc2ccc(Cl)cc2)C(O)C1OCc1ccccc1 (centres unmarked) [Compound 421]	+ (Indicates inhibition greater than . . . 50%)	
NCCCC(=O)NC1C(OCc2ccc3ccccc3c2)OC(COCc2ccc3ccccc3c2)C(O)C1OCc1ccc(Cl)cc1 (centres unmarked) [Compound 422]	+ (Indicates inhibition greater than . . . 50%)	
NCCCC(=O)NC1C(OCc2ccc3ccccc3c2)OC(COCc2ccccc2)C(O)C1OCc1ccc(Cl)cc1 (centres unmarked) [Compound 423]	+ (Indicates inhibition greater than . . . 50%)	
NCCCC(=O)NC1C(OCc2ccc3ccccc3c2)OC(COCc2ccc(Cl)cc2)C(O)C1OCc1ccc(Cl)cc1 (centres unmarked) [Compound 424]	+ (Indicates inhibition greater than . . . 50%)	
NCCCC(=O)NC1C(OCc2ccc3ccccc3c2)OC(COCc2ccc3ccccc3c2)C(O)C1OCc1ccc2ccccc2c1 (centres unmarked) [Compound 425]	+ (Indicates inhibition greater than . . . 50%)	
NCCCC(=O)NC1C(OCc2ccc3ccccc3c2)OC(COCc2ccccc2)C(O)C1OCc1ccc2ccccc2c1 (centres unmarked) [Compound 426]	+ (Indicates inhibition greater than . . . 50%)	
NCCCC(=O)NC1C(OCc2ccc3ccccc3c2)OC(COCc2ccc(Cl)cc2)C(O)C1OCc1ccc2ccccc2c1 (centres unmarked) [Compound 427]	+ (Indicates inhibition greater than . . . 50%)	
NCCCC(=O)NC1C(OCc2ccc3ccccc3c2)OC(COCc2ccc3ccccc3c2)C(O)C1OCc1ccccc1 (centres unmarked) [Compound 428]	+ (Indicates inhibition greater than . . . 50%)	
NCCCC(=O)NC1C(OCc2ccc3ccccc3c2)OC(COCc2ccccc2)C(O)C1OCc1ccccc1 (centres unmarked) [Compound 429]	+ (Indicates inhibition greater than . . . 50%)	

SMILES	MC4 Inhibition at 4.0 Micromolar (Example Library 11)	MC4 Inhibition at 4.0 Micromolar (Example Library 12)
NCCCC(=O)NC1C(OCc2ccc3ccccc3c2)OC(COCc2ccc(Cl)cc2)C(O)C1OCc1ccccc1 (centres unmarked) [Compound 430]	+ (Indicates inhibition greater than . . . 50%)	
N=C(N)NCC(=O)N[C@H]1C(OCc2ccccc2)O[C@H](COCc2ccc3ccccc3c2)[C@@H](O)[C@@H]1OCc1ccc(Cl)cc1 (some centres unmarked) [Compound 431]		+ (Indicates inhibition greater than . . . 50%)
N=C(N)NCC(=O)N[C@H]1C(OCc2ccccc2)O[C@H](COCc2ccc3ccccc3c2)[C@@H](O)[C@@H]1OCc1ccc(Cl)cc1 (some centres unmarked) [Compound 432]		+ (Indicates inhibition greater than . . . 50%)
N=C(N)NCC(=O)N[C@H]1C(OCc2ccccc2)O[C@H](COCc2ccccc2)[C@@H](O)[C@@H]1OCc1ccc(Cl)cc1 (some centres unmarked) [Compound 433]		+ (Indicates inhibition greater than . . . 50%)
N=C(N)NCC(=O)N[C@H]1C(OCc2ccccc2)O[C@H](COCc2ccccc2)[C@@H](O)[C@@H]1OCc1ccc(Cl)cc1 (some centres unmarked) [Compound 434]		+ (Indicates inhibition greater than . . . 50%)
N=C(N)NCC(=O)N[C@H]1C(OCc2ccccc2)O[C@H](COCc2ccc(Cl)cc2)[C@@H](O)[C@@H]1OCc1ccc(Cl)cc1 (some centres unmarked) [Compound 435]		+ (Indicates inhibition greater than . . . 50%)
N=C(N)NCC(=O)N[C@H]1C(OCc2ccccc2)O[C@H](COCc2ccc3ccccc3c2)[C@@H](O)[C@@H]1OCc1ccc2ccccc2c1 (some centres unmarked) [Compound 436]		+ (Indicates inhibition greater than . . . 50%)
N=C(N)NCC(=O)N[C@H]1C(OCc2ccccc2)O[C@H](COCc2ccc3ccccc3c2)[C@@H](O)[C@@H]1OCc1ccc2ccccc2c1 (some centres unmarked) [Compound 437]		+ (Indicates inhibition greater than . . . 50%)
N=C(N)NCC(=O)N[C@H]1C(OCc2ccccc2)O[C@H](COCc2ccccc2)[C@@H](O)[C@@H]1OCc1ccc2ccccc2c1 (some centres unmarked) [Compound 438]		+ (Indicates inhibition greater than . . . 50%)
N=C(N)NCC(=O)N[C@H]1C(OCc2ccccc2)O[C@H](COCc2ccc(Cl)cc2)[C@@H](O)[C@@H]1OCc1ccc2ccccc2c1 (some centres unmarked) [Compound 439]		+ (Indicates inhibition greater than . . . 50%)
N=C(N)NCC(=O)N[C@H]1C(OCc2ccccc2)O[C@H](COCc2ccc(Cl)cc2)[C@@H](O)[C@@H]1OCc1ccc2ccccc2c1 (some centres unmarked) [Compound 440]		+ (Indicates inhibition greater than . . . 50%)
N=C(N)NCC(=O)N[C@H]1C(OCc2ccccc2)O[C@H](COCc2ccc3ccccc3c2)[C@@H](O)[C@@H]1OCc1ccc(-c2ccccc2)cc1 (some centres unmarked) [Compound 441]		+ (Indicates inhibition greater than . . . 50%)
N=C(N)NCC(=O)N[C@H]1C(OCc2ccccc2)O[C@H](COCc2ccccc2)[C@@H](O)[C@@H]1OCc1ccc(-c2ccccc2)cc1 (some centres unmarked) [Compound 442]		+ (Indicates inhibition greater than . . . 50%)
N=C(N)NCC(=O)N[C@H]1C(OCc2ccccc2)O[C@H](COCc2ccccc2)[C@@H](O)[C@@H]1OCc1ccc(-c2ccccc2)cc1 (some centres unmarked) [Compound 443]		+ (Indicates inhibition greater than . . . 50%)
N=C(N)NCC(=O)N[C@H]1C(OCc2ccccc2)O[C@H](COCc2ccc(Cl)cc2)[C@@H](O)[C@@H]1OCc1ccc(-c2ccccc2)cc1 (some centres unmarked) [Compound 444]		+ (Indicates inhibition greater than . . . 50%)
N=C(N)NCC(=O)N[C@H]1C(OCc2ccccc2)O[C@H](COCc2ccc(Cl)cc2)[C@@H](O)[C@@H]1OCc1ccc(-c2ccccc2)cc1 (some centres unmarked) [Compound 445]		+ (Indicates inhibition greater than . . . 50%)
N=C(N)NCCC(=O)N[C@H]1C(OCc2ccccc2)O[C@H](COCc2ccc3ccccc3c2)[C@@H](O)[C@@H]1OCc1ccc(Cl)cc1 (some centres unmarked) [Compound 446]		+ (Indicates inhibition greater than . . . 50%)
N=C(N)NCCC(=O)N[C@H]1C(OCc2ccccc2)O[C@H](COCc2ccc3ccccc3c2)[C@@H](O)[C@@H]1OCc1ccc(Cl)cc1 (some centres unmarked) [Compound 447]		+ (Indicates inhibition greater than . . . 50%)
N=C(N)NCCC(=O)N[C@H]1C(OCc2ccccc2)O[C@H](COCc2ccccc2)[C@@H](O)[C@@H]1OCc1ccc(Cl)cc1 (some centres unmarked) [Compound 448]		+ (Indicates inhibition greater than . . . 50%)
N=C(N)NCCC(=O)N[C@H]1C(OCc2ccccc2)O[C@H](COCc2ccccc2)[C@@H](O)[C@@H]1OCc1ccc(Cl)cc1 (some centres unmarked) [Compound 449]		+ (Indicates inhibition greater than . . . 50%)
N=C(N)NCCC(=O)N[C@H]1C(OCc2ccccc2)O[C@H](COCc2ccc(Cl)cc2)[C@@H](O)[C@@H]1OCc1ccc(Cl)cc1 (some centres unmarked) [Compound 450]		+ (Indicates inhibition greater than . . . 50%)
N=C(N)NCCC(=O)N[C@H]1C(OCc2ccccc2)O[C@H](COCc2ccc(Cl)cc2)[C@@H](O)[C@@H]1OCc1ccc(Cl)cc1 (some centres unmarked) [Compound 451]		+ (Indicates inhibition greater than . . . 50%)
N=C(N)NCCC(=O)N[C@H]1C(OCc2ccccc2)O[C@H](COCc2ccc3ccccc3c2)[C@@H](O)[C@@H]1OCc1ccc2ccccc2c1 (some centres unmarked) [Compound 452]		+ (Indicates inhibition greater than . . . 50%)
